“Also recorded” adds a separate entry of the source.

The subject of one data set is bdnf promoters. The data set is described as follows: ChIP for H3K9me3 at BDNF promoter regions in hippocampus. It counts as in vivo. As to conditions: aged mice, ETP69 versus controls. The procedure:
ChIP for BDNF promoter regions: After cross-linking with 1% formaldehyde, chromatin was sheared to fragments of 200-500 bp. Immunoprecipitation was realized overnight at 4° C. with an antibody directed against histone H3K9me3 (H3K9me3; Millipore). After washes, elution from beads, and reversal of the cross-link, immunoprecipitated DNA was purified and analyzed in triplicate by qRT-PCR with an internal standard curve prepared from pooled input samples. Each sample was normalized with the respective input value. Primers for bdnf promoters for exon I, IV, and VI correspond to each unique exon sequence. RT-qPCR primer sets were designed using the Roche Universal Probe Library Assay Design Center and obtained from Integrated DNA Technologies (Coralville, IA). RT-qPCR reactions were run in a Stratagene MX3005P thermocycler at 95° C. for 3 min, followed by 45 cycles of 95° C. for 10 s, and 58° C. for 15 s. Each RT-qPCR run included all samples run in triplicate and a standard curve. Data were analyzed by the 2^−ΔΔct method and expressed as fold change over control after normalizing with input samples, as described previously.

In another data set the test system is CA1 pyramidal neurons. The experiment in a line: Spine counts (Golgi staining) on CA1 pyramidal neurons of aged mice. Format: in vivo. The following applies: 10 mg/kg i.p., 24 hours. The procedure:
Spine counts: In another series of experiments 10 aged mice (20-22 months) were injected with ETP69 (10 mg/kg; i.p) or vehicle (i.p) and 24 hours later the animals were euthanized and the brains were separated into two hemispheres. Right hemisphere was used for Golgi staining and the left was processed for flow synaptometry. Staining was conducted according to manufacturer's information (Golgi-Cox, Bioenna).
Specifically, we counted and classified spines on CA1 pyramidal neurons. Dendrite segments from neurons in CA1 of the hippocampus were imaged by confocal microscopy and a blinded investigator counted and classified dendritic spines according to their morphology. Spines were manually counted and classified as thin, mushroom, or stubby, according to previously described criteria.
For each animal, at least 3 pyramidal neurons and 200 μm of total dendrite length and 250-500 spines were analyzed (n=5 animals per group). All of the neurons were chosen from the dorsal part of the CA1 hippocampal region (according with it essential role in spatial memory) and were completely stained along basal and apical dendrites. FIG. 10 presents representative images showing effect of ETP69 treatment on spines in the CA1 of the hippocampus.

The target of data set [1] is DNA methyltransferase DNMT1 (Homo sapiens, UniProt P26358). The experiment in a line: Inhibitory activity towards DNA methyltransferase DNMT1. Format: biochemical.
A further data set has as its system H3K9me3. The data set is described as follows: Histone H3K9 trimethylation level in brain tissue extracts of aged mice. Format: in vivo.
For another data set, the system named is aged C57Bl/6J male mice. The data set is described as follows: Object location memory (OLM) task in aged mice. Format: in vivo. As to conditions: for OLM retention: memory performance (exploration of novel versus familiar location): retention test 24 hours later. The protocol: Object Location Memory (OLM): Training and testing procedures were performed using a standard OLM protocol. Briefly, 22 aged mice and 18 young mice were handled for about 2-3 minutes per day for 5 days, followed by habituation to the experimental apparatus (white rectangular open field measuring 30×23×21.5 cm) for 5 min per day for 5 consecutive days before training.
Dose Response in OLM: On the test day mice were given 3 minutes of habituation (in an empty test arena) followed by i.p. injection of ETP69 (10 mg/kg (n=8) or 20 mg/kg (n=7)) or vehicle (n=7). Mice were then given a 3-min acquisition trial (with 2 similar objects placed in the arena opposite each other) 30 minutes after the i.p. injection of drug or vehicle and all animals were then returned to their home cages for a 24 hour inter-trial interval. Twenty-four hours later, a 3-minute retention test was administered, where one object was moved to a novel location and the amount of time the animals spent exploring the novel versus familiar location was recorded in order to evaluate the dose response in the OLM task. Since animals that had received 10 mg/kg performed better than other groups in the OLM task, 10 mg/kg was used for the remainder of the study. This OLM paradigm has previously shown to be subthreshold for learning.
Acquisition (pre-training) or Consolidation (post-training): In another test, aimed to determine the efficacy of the compound in pre and post training paradigms, the same group of 22 aged animals were retested on the OLM task 3 weeks after the first test. To determine whether the drug impacted acquisition or consolidation mechanisms, mice were injected with the 10 mg/kg compound (i.p. n=7) or vehicle (n=8). Animals were sacrificed right after retention testing (i.e. 24 hours post injection), and hippocampi were removed, rapidly frozen on dry ice, and stored at −80° C. until processing for trimethylation levels and BDNF assay. FIG. 2 is a graphical representation of the effect of the drug at 10 mg/kg and 20 mg/kg (i.p) administered 30 minutes prior to acquisition phase in the novel place position task in mice. […] Data are mean±SEM; n=7 or 8/group.

Chain of DNA methyltransferase DNMT1 (P26358 whole entry): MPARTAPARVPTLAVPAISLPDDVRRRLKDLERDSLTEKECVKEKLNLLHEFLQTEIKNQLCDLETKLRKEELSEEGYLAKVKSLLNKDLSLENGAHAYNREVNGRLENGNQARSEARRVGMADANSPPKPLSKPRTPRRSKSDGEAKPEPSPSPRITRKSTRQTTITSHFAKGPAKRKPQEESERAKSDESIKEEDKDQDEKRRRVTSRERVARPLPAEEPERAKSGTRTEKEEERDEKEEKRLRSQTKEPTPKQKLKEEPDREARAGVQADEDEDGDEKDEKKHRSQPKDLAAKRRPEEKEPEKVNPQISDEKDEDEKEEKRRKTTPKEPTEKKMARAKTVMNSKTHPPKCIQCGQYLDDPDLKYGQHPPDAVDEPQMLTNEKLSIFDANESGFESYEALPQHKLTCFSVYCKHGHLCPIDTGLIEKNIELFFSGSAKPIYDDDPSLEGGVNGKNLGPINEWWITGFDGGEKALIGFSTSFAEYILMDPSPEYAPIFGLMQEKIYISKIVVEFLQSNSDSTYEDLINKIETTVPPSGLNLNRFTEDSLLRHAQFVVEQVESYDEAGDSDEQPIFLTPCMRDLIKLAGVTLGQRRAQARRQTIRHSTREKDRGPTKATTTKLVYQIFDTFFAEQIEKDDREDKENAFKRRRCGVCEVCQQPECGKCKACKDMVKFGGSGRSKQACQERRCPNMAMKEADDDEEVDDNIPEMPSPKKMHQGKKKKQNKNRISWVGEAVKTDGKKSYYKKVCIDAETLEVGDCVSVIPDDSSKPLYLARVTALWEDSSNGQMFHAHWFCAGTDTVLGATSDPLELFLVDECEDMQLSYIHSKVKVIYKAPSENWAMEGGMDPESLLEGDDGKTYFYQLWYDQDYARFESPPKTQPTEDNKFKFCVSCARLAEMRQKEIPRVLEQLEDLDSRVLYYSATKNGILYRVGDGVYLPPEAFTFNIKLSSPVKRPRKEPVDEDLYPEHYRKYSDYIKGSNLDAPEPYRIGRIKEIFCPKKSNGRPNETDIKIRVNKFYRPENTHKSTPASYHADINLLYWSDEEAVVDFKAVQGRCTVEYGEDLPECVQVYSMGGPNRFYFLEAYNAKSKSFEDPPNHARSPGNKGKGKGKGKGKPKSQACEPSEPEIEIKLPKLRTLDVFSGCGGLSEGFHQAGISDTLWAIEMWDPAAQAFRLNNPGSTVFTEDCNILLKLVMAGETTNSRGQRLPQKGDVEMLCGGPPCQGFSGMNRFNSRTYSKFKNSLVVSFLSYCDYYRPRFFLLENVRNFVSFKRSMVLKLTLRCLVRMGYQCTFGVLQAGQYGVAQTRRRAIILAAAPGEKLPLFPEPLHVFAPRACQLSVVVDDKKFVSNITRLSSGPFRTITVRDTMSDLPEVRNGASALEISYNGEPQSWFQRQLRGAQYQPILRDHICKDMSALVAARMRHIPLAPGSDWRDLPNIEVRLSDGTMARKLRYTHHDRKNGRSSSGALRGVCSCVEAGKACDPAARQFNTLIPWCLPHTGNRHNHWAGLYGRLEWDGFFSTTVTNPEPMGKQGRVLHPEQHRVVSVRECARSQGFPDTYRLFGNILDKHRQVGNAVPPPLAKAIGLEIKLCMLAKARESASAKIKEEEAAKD

In the case of `CN1C(=O)[C@@]23C[C@](C)(C#N)[C@H](c4ccc5c(c4)OCO5)N2C(=O)[C@]1(C)SS3` (racemic) [ETP69, Rac-(3S,6S,7S,8aS)-6-(benzo[d][1,3]dioxol-5-yl)-2,3,7-trimethyl-1,4-dioxohexahydro-6H-3,8a-epidithiopyrrolo[1,2-a]pyrazine-7-carbonitrile], in the data set on bdnf promoters, the “H3K9me3 at bdnf promoter I (Exon 1)” value was “significant effect of treatment; also recorded: significantly lower”. In the data set with CA1 pyramidal neurons (CA1), the “density of stubby spines” value is given as “significantly higher density”, the “density of thin spines” value is recorded as “significantly higher density” and the “numbers of mushroom spines/length of dendrite” value is “no difference”. Also, the “increase in total number of spines per length of dendrite compared to controls” value with CA1 pyramidal neurons (CA1 hippocampus) is 45%. In addition, the “inhibitory activity towards DNA methyltransferase DNMT1” value in data set [1] was “no inhibitory activity”. The “H3K9me3 levels in hippocampus” value in the data set with H3K9me3 (10 mg/kg i.p., 24 hours post drug, hippocampal histone extracts) is “decreases in H3K9me3 levels”. The “H3K9me3 levels in cerebellum” value in the data set with H3K9me3 (ETP69-treated versus untreated, cerebellum) is reported as “no significant difference”. Further, the “OLM acquisition phase: object exploration (seconds)” value in the data set with aged C57Bl/6J male mice (10 mg/kg and 20 mg/kg i.p. 30 minutes before acquisition) was “no difference in object exploration”. For the same compound, in the data set on aged C57Bl/6J male mice (10 mg/kg i.p.), the “OLM acquisition phase, pre/post-trial experiment: group differences” value is given as “no significant group differences”. In addition, the “OLM retention: memory performance (exploration of novel versus familiar location)” value in the data set on aged C57Bl/6J male mice (10 mg/kg i.p. 30 minutes before acquisition, 10 mg/kg) is listed as “explored the novel object significantly (measured in seconds) more than the familiar object; also recorded: induced memory improvements”. Moreover, the “OLM performance, pre-trial administration” value with aged C57Bl/6J male mice (10 mg/kg i.p. 30 minutes prior to acquisition phase, tested 24 h) is given as “improved performance in the OLM task”. Moreover, the “OLM performance, post-trial administration” value with aged C57Bl/6J male mice (10 mg/kg i.p. immediately after acquisition, tested 24 h) is listed as “improved performance in the OLM task”. Moreover, the “OLM acquisition phase: total exploration time” value in the data set with aged C57Bl/6J male mice (20 mg/kg i.p.) is reported as “decrease in total exploration time”. The “OLM retention: memory performance (exploration of novel versus familiar location)” value with aged C57Bl/6J male mice (20 mg/kg i.p. 30 minutes before acquisition, 20 mg/kg) is listed as “performed similar to aged controls; also recorded: but not 20 mg/kg induced memory improvements”.

The values are drawn from patent publication US12622916B2, “Use of H3K9me3 modulation for enhancing cognitive function” (THE REGENTS OF THE UNIVERSITY OF CALIFORNIA, priority 2015, dated 2026).
